# Measurements published in US7485651B2, “Compounds with activity on muscarinic receptors” (Acadia Pharmaceuticals, Inc., priority 1998, dated 2009).
# How the values were obtained:
# Format in all cases: cell-based
# histamine H1 = histamine H1 (Homo sapiens, UniProt P35367); experiment: Test against other receptors: histamine H1
# [1] = biological target: T1, α-adrenergic receptor subtype 1B (Homo sapiens, UniProt P35368); experiment: Test against other receptors: α-adrenergic 1B
# T1 sequence (P35368 1-520): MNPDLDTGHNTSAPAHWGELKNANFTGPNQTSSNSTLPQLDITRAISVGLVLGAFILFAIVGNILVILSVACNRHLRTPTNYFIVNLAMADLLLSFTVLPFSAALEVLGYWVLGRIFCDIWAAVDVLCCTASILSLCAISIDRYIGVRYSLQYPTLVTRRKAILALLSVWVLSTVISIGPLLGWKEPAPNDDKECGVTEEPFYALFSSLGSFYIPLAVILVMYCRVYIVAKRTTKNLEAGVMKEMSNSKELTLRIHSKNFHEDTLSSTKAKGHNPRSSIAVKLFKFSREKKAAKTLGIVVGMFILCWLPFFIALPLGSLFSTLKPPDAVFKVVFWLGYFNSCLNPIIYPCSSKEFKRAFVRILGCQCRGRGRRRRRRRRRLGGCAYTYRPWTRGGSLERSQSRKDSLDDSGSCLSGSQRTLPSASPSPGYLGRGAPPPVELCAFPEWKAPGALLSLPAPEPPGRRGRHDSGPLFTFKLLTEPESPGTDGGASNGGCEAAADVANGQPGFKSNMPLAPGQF
# serotonin 5-HT1A = biological target: T2, serotonin 5-HT1A (Homo sapiens, UniProt P08908); experiment: Test against other receptors: serotonin 5-HT1A
# T2 sequence (P08908 1-422): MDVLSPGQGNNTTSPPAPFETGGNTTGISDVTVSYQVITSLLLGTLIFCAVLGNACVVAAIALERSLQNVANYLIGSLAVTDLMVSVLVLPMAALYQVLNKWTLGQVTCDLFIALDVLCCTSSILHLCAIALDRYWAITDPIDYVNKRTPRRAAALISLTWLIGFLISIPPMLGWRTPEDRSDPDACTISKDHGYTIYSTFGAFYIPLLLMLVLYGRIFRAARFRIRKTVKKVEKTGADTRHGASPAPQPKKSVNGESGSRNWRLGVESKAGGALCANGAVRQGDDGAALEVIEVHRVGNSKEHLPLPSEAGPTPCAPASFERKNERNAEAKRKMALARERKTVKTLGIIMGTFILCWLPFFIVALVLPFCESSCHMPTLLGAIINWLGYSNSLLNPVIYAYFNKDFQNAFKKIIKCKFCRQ
# [2] = biological target: T3, α-adrenergic receptor subtype 2A (Homo sapiens, UniProt P08913); experiment: Test against other receptors: α-adrenergic 2A
# T3 sequence (P08913 1-465): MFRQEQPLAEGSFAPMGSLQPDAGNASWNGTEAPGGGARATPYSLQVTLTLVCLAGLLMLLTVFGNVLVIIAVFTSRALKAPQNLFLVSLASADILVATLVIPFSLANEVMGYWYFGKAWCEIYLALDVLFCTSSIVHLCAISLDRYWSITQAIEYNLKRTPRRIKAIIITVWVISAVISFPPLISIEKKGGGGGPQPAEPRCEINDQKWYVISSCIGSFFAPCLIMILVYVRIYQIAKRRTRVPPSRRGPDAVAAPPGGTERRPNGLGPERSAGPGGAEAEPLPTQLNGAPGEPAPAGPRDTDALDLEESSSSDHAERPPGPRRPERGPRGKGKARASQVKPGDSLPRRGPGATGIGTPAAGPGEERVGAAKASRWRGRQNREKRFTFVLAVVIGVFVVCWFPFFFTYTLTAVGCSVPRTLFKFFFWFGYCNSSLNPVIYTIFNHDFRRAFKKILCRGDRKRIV
# histamine H1, sequence (P35367 whole entry): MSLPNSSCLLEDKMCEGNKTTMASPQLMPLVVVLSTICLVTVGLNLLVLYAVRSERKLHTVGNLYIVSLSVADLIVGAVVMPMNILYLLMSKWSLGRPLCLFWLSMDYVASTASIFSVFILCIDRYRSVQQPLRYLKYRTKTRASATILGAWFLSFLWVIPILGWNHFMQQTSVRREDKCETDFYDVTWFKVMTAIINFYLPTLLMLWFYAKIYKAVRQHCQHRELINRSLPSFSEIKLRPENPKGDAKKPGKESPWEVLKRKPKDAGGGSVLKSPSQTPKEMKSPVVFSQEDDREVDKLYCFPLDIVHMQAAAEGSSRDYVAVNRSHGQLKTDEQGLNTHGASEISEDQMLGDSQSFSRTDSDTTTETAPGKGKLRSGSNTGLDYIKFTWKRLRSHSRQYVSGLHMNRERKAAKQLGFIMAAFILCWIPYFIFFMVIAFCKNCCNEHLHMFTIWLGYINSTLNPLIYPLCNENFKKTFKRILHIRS
compound,measurement,setting,value
"CCCCC1CCN(CCCC(=O)c2ccccc2C)CC1 [Compound A, 4-n-Butyl-1-[4-(2-methylphenyl)-4-oxo-1-butyl]piperidine]",agonist activity,histamine H1,no significant activity
same,agonist activity,[1],no significant activity
same,agonist activity,serotonin 5-HT1A,no significant activity
same,inhibition of receptor responses (antagonist experiments),serotonin 5-HT1A,did not inhibit
same,agonist activity,[2],no significant activity
same,inhibition of receptor responses (antagonist experiments),[2],did not inhibit
